{"source": "patent US20240041877A1", "about": "“DOSAGE REGIME AND METHOD FOR TREATING PULMONARY ARTERIAL HYPERTENSION” (Altavant Sciences GmbH, priority 2019, published 2024)", "key": {"[1]": {"test": "clinical", "conditions": "human; for Cmax at 1 day / Cmax at 14 day: 100 mg", "text": "Food effect was to be evaluated in Part 1, Period 2.\nPharmacokinetic data were to be summarized descriptively."}, "[2]": {"test": "Part 1 (SAD): urine pharmacokinetics (amount excreted, renal clearance) after a single oral dose of KAR5585", "assay_type": "in vivo, human", "conditions": "for CL renal: human", "description": "Renal clearance of KAR5417 was calculated from the area under the plasma time concentration curve (AUC0-96) for KAR5417 and the amount of KAR5417 recovered in urine (Table 21)."}, "[3]": {"test": "Cardiac conduction (QTcF) in healthy adult subjects", "assay_type": "in vivo, human"}, "[4]": {"conditions": "KAR5585 in urine, 100 mg KAR5585 single oral dose, mean"}, "[5]": {"conditions": "KAR5585 in urine, 200 mg KAR5585 single oral dose, mean"}, "[6]": {"conditions": "KAR5585 in urine, 400 mg (Fasted) KAR5585 single oral dose, mean"}, "[7]": {"conditions": "KAR5585 in urine, 400 mg (Fed) KAR5585 single oral dose, mean"}, "[8]": {"conditions": "KAR5585 in urine, 700 mg KAR5585 single oral dose, mean"}}, "note": "Where two headings read alike, the source gives them in different places.", "data": [{"smiles": "Nc1nc(O[C@H](c2ccc(Cl)cc2-c2ccccc2)C(F)(F)F)cc(N2CCC3(CC2)CN[C@H](C(=O)O)C3)n1", "note": "[KAR5417, (S)-8-(2-amino-6-((R)-1-(5-chloro-[1,1T-biphenyl]-2-yl)-2,2,2-trifluoroeth-oxy)pyrimidin-4-yl)-2,8-diazaspiro[4.5]decane-3-carboxylic acid]", "values": [{"measurement": "Cmax at 1 day", "setting": "[1]; plasma, oral", "value": 0.121, "unit": "µg/mL"}, {"measurement": "Cmax at 14 day", "setting": "[1]; plasma, oral", "value": 0.194, "unit": "µg/mL"}, {"measurement": "highest amount excreted in urine", "setting": "[2]; 400 mg fed Cohort (Cohort 3B)", "value": "0.331 % of the dose"}, {"measurement": "Amount Excreted (Ae)", "setting": "[2]; KAR5417 in urine, 100 mg KAR5585 single oral dose, mean", "value": 233, "unit": "µg"}, {"measurement": "Total Excreted (%)", "setting": "[2]; KAR5417 in urine, 100 mg KAR5585 single oral dose, mean, assuming complete conversion of KAR5585 to KAR5417", "value": 0.245, "unit": "%"}, {"measurement": "Amount Excreted (Ae)", "setting": "[2]; KAR5417 in urine, 200 mg KAR5585 single oral dose, mean", "value": 211, "unit": "µg"}, {"measurement": "Total Excreted (%)", "setting": "[2]; KAR5417 in urine, 200 mg KAR5585 single oral dose, mean, assuming complete conversion of KAR5585 to KAR5417", "value": 0.111, "unit": "%"}, {"measurement": "Amount Excreted (Ae)", "setting": "[2]; KAR5417 in urine, 400 mg (fasted) KAR5585 single oral dose, mean", "value": 769, "unit": "µg"}, {"measurement": "Total Excreted (%)", "setting": "[2]; KAR5417 in urine, 400 mg (fasted) KAR5585 single oral dose, mean, assuming complete conversion of KAR5585 to KAR5417", "value": 0.202, "unit": "%"}, {"measurement": "Amount Excreted (Ae)", "setting": "[2]; KAR5417 in urine, 400 mg (fed) KAR5585 single oral dose, mean", "value": 1260, "unit": "µg"}, {"measurement": "Total Excreted (%)", "setting": "[2]; KAR5417 in urine, 400 mg (fed) KAR5585 single oral dose, mean, assuming complete conversion of KAR5585 to KAR5417", "value": 0.331, "unit": "%"}, {"measurement": "Amount Excreted (Ae)", "setting": "[2]; KAR5417 in urine, 700 mg KAR5585 single oral dose, mean", "value": 998, "unit": "µg"}, {"measurement": "Total Excreted (%)", "setting": "[2]; KAR5417 in urine, 700 mg KAR5585 single oral dose, mean, assuming complete conversion of KAR5585 to KAR5417", "value": 0.150, "unit": "%"}, {"measurement": "Amount Excreted (Ae)", "setting": "[2]; KAR5417 in urine, 1200 mg KAR5585 single oral dose, mean", "value": 1170, "unit": "µg"}, {"measurement": "Total Excreted (%)", "setting": "[2]; KAR5417 in urine, 1200 mg KAR5585 single oral dose, mean, assuming complete conversion of KAR5585 to KAR5417", "value": 0.102, "unit": "%"}, {"measurement": "Amount Excreted (Ae)", "setting": "[2]; KAR5417 in urine, 2000 mg KAR5585 single oral dose, mean", "value": 2130, "unit": "µg"}, {"measurement": "Total Excreted (%)", "setting": "[2]; KAR5417 in urine, 2000 mg KAR5585 single oral dose, mean, assuming complete conversion of KAR5585 to KAR5417", "value": 0.112, "unit": "%"}, {"measurement": "CL renal", "setting": "[2]; plasma and urine, oral, from plasma AUC0-96 and amount recovered in urine, read-out: Renal clearance, range across doses", "value": "2.62 to 4.93", "unit": "mL/min"}, {"measurement": "CL renal", "setting": "[2]; urine and plasma, po, 100 mg, KAR5417, 100 mg KAR5585 single oral dose, mean, read-out: CLR (converted)", "value": 4.93, "unit": "mL/min"}, {"measurement": "CL renal", "setting": "[2]; urine and plasma, po, 200 mg, KAR5417, 200 mg KAR5585 single oral dose, mean, read-out: CLR (converted)", "value": 2.67, "unit": "mL/min"}, {"measurement": "CL renal", "setting": "[2]; urine and plasma, po, 400 mg, KAR5417, 400 mg (fasted) KAR5585 single oral dose, mean, read-out: CLR (converted)", "value": 3.62, "unit": "mL/min"}, {"measurement": "CL renal", "setting": "[2]; urine and plasma, po, 400 mg, KAR5417, 400 mg (fed) KAR5585 single oral dose, mean, read-out: CLR (converted)", "value": 3.18, "unit": "mL/min"}, {"measurement": "CL renal", "setting": "[2]; urine and plasma, po, 700 mg, KAR5417, 700 mg KAR5585 single oral dose, mean, read-out: CLR (converted)", "value": 3.18, "unit": "mL/min"}, {"measurement": "CL renal", "setting": "[2]; urine and plasma, po, 1200 mg, KAR5417, 1200 mg KAR5585 single oral dose, mean, read-out: CLR (converted)", "value": 2.62, "unit": "mL/min"}, {"measurement": "CL renal", "setting": "[2]; urine and plasma, po, 2000 mg, KAR5417, 2000 mg KAR5585 single oral dose, mean, read-out: CLR (converted)", "value": 3.43, "unit": "mL/min"}, {"measurement": "tendency to increase QTcF in a dose-dependent manner", "setting": "[3]", "value": "Neither the prodrug (KAR5585) nor the active drug (KAR5417) showed any tendency to increase QTcF in a dose-dependent manner"}]}, {"smiles": "CCOC(=O)[C@@H]1CC2(CCN(c3cc(O[C@H](c4ccc(Cl)cc4-c4ccccc4)C(F)(F)F)nc(N)n3)CC2)CN1", "note": "[KAR5585, (S)-ethyl 8-(2-amino-6-((R)-1-(5-chloro-[1,1′-biphenyl]-2-yl)-2,2,2-trifluoroethoxy)pyrimidin-4-yl)-2,8-diazaspiro[4.5]decane-3-carboxylate]", "values": [{"measurement": "half-life", "setting": "[1]; in vivo, 400 mg", "value": 3.14, "unit": "h"}, {"measurement": "Cmax", "setting": "[1]; in vivo, 400 mg/dose", "value": 0.11, "unit": "µg/mL"}, {"measurement": "Cmax at 1 day", "setting": "[1]; plasma, oral", "value": 0.0167, "unit": "µg/mL"}, {"measurement": "Cmax at 14 day", "setting": "[1]; plasma, oral", "value": 0.0213, "unit": "µg/mL"}, {"measurement": "AUC(0-inf)", "setting": "[1]; plasma, oral, 100 mg/dose", "value": 0.0541, "unit": "µg·h/mL"}, {"measurement": "AUC(0-t)", "setting": "[1]; plasma, oral, 100 mg/dose", "value": 0.0508, "unit": "µg·h/mL"}, {"measurement": "Cmax", "setting": "[1]; plasma, oral, 100 mg/dose", "value": 0.0158, "unit": "µg/mL"}, {"measurement": "Tmax", "setting": "[1]; plasma, oral, 100 mg/dose", "value": 1, "unit": "h"}, {"measurement": "Vd/F", "setting": "[1]; plasma, oral, 100 mg/dose", "value": 4620, "unit": "L"}, {"measurement": "half-life", "setting": "[1]; plasma, oral, 100 mg/dose", "value": 1.73, "unit": "h"}, {"measurement": "AUC(0-inf)", "setting": "[1]; plasma, oral, 400 mg", "value": 0.305, "unit": "µg·h/mL"}, {"measurement": "Tmax", "setting": "[1]; plasma, oral, 400 mg", "value": 2, "unit": "h"}, {"measurement": "AUC(0-inf)", "setting": "[1]; plasma, oral, 400 mg/dose", "value": 0.482, "unit": "µg·h/mL"}, {"measurement": "Cmax", "setting": "[1]; plasma, oral, 400 mg/dose", "value": 0.089, "unit": "µg/mL"}, {"measurement": "concentration at 12 h", "setting": "[1]; plasma, oral, 400 mg/dose", "value": 0.0114, "unit": "µg/mL"}, {"measurement": "half-life", "setting": "[1]; plasma, oral, 400 mg/dose", "value": 6.45, "unit": "h"}, {"measurement": "Amount Excreted (Ae)", "setting": "[2]; [4]", "value": 0, "unit": "µg"}, {"measurement": "Total Excreted (%)", "setting": "[2]; [4]", "value": 0, "unit": "%"}, {"measurement": "Amount Excreted (Ae)", "setting": "[2]; [5]", "value": 0, "unit": "µg"}, {"measurement": "Total Excreted (%)", "setting": "[2]; [5]", "value": 0, "unit": "%"}, {"measurement": "Amount Excreted (Ae)", "setting": "[2]; [6]", "value": 13.8, "unit": "µg"}, {"measurement": "Total Excreted (%)", "setting": "[2]; [6]", "value": 0.00346, "unit": "%"}, {"measurement": "Amount Excreted (Ae)", "setting": "[2]; [7]", "value": 0, "unit": "µg"}, {"measurement": "Total Excreted (%)", "setting": "[2]; [7]", "value": 0, "unit": "%"}, {"measurement": "Amount Excreted (Ae)", "setting": "[2]; [8]", "value": 0, "unit": "µg"}, {"measurement": "Total Excreted (%)", "setting": "[2]; [8]", "value": 0, "unit": "%"}, {"measurement": "Amount Excreted (Ae)", "setting": "[2]; KAR5585 in urine, 2000 mg KAR5585 single oral dose, mean", "value": 1.50, "unit": "µg"}, {"measurement": "CL renal", "setting": "[2]; urine and plasma, po, 2000 mg, KAR5585, 2000 mg KAR5585 single oral dose, mean, read-out: CLR (converted)", "value": 0.0383, "unit": "mL/min"}, {"measurement": "tendency to increase QTcF in a dose-dependent manner", "setting": "[3]", "value": "Neither the prodrug (KAR5585) nor the active drug (KAR5417) showed any tendency to increase QTcF in a dose-dependent manner"}]}]}
